Experimental data as given in patent publication US20220248678A1, “HERBICIDAL COMPOUNDS” (SYNGENTA CROP PROTECTION AG, priority 2019, published 2022).

Columns and labels:
Experiment in all cases: Post-emergence efficacy, glasshouse
Type in all cases: in vivo
Conditions in all cases: after 13 days, 100=total damage to plant, 0=no damage to plant
Lolium perenne (LOLPE) = test system: Lolium perenne (LOLPE)
Experimental: (§1) Seeds of a variety of test species were shown in standard soil in pots. After cultivation for 14 days (post-emergence) under controlled conditions in a glasshouse (at 24/16° C., day/night; 14 hours light; 65% humidity), the plants were sprayed with an aqueous spray solution derived from the dissolution of the technical active ingredient for each of compounds 1 to 26 from Table A above, in a small amount of acetone and a special solvent and emulsifier mixture referred to as IF50 (11.12% Emulsogen EL360 TM+44.44% N-methylpyrrolidone+44.44% Dowanol DPM glycol ether), to create a 50 g/I solution which was then diluted to required concentration using 0.25% or 1% Empicol ESC70 (Sodium lauryl ether sulphate)+1% ammonium sulphate in water as diluent. These spray test compositions are described as composition numbers C1 to C26, with the numerical value corresponding to the compound number from Table A.
(§2) The test plants were then grown in a glasshouse under controlled conditions (at 24/16° C., day/night; 14 hours light; 65% humidity) and watered twice daily. After 13 days the test was evaluated (100=total damage to plant; 0=no damage to plant).
(§3) Ipomoea hederacea (IPOHE), Euphorbia heterophylla (EPHHL), Chenopodium album (CHEAL), Amaranthus palmeri (AMAPA), Lolium perenne (LOLPE), Digitaria sanguinalis (DIGSA), Eleusine indica (ELEIN), Echinochloa crus-galli (ECHCG), Setaria faberi (SETFA)

[1] = test system: Echinochloa crus-galli (ECHCG)
Experimental: as §1, §2, §3

Eleusine indica (ELEIN) = test system: Eleusine indica (ELEIN)
Experimental: as §1, §2, §3

[2] = test system: Chenopodium album (CHEAL)
Experimental: as §1, §2, §3

[3] = test system: Digitaria sanguinalis (DIGSA)
Experimental: as §1, §2, §3

Setaria faberi (SETFA) = test system: Setaria faberi (SETFA)
Experimental: as §1, §2, §3

[4] = test system: Amaranthus palmeri (AMAPA)
Experimental: as §1, §2, §3

[5] = test system: Ipomoea hederacea (IPOHE)
Experimental: as §1, §2, §3

[6] = test system: Euphorbia heterophylla (EPHHL)
Experimental: as §1, §2, §3

SMILES | Control of weed species LOLPE (Lolium perenne (LOLPE); 1000 g/Ha) | Control of weed species ECHCG ([1]; 1000 g/Ha) | Control of weed species ELEIN (Eleusine indica (ELEIN); 1000 g/Ha) | Control of weed species CHEAL ([2]; 1000 g/Ha) | Control of weed species DIGSA ([3]; 1000 g/Ha) | Control of weed species SETFA (Setaria faberi (SETFA); 1000 g/Ha) | Control of weed species AMAPA ([4]; 1000 g/Ha) | Control of weed species IPOHE ([5]; 1000 g/Ha) | Control of weed species EPHHL ([6]; 1000 g/Ha) | further results
C[n+]1cc(P(=O)([O-])Oc2ccccc2)c2ccccc2n1 [Composition C11] | 30 | 20 | 80 | 70 | 70 | 50 | 100 | 70 | 60 | 
CCOP(=O)(O)c1c[n+](C)nc2ccccc12.O=C([O-])C(F)(F)F [Composition C1] | 60 | 70 | 90 | 100 | 90 | 80 | 90 | 100 | 100 | 
CCCCOP(=O)(O)c1c[n+](C)nc2ccccc12.O=C([O-])C(F)(F)F [Composition C2] |  |  |  |  |  |  |  |  |  | Control of weed species LOLPE (Lolium perenne (LOLPE); 500 g/Ha): 30; Control of weed species ECHCG ([1]; 500 g/Ha): 30; Control of weed species ELEIN (Eleusine indica (ELEIN); 500 g/Ha): 40; Control of weed species CHEAL ([2]; 500 g/Ha): 70; Control of weed species DIGSA ([3]; 500 g/Ha): 60; Control of weed species SETFA (Setaria faberi (SETFA); 500 g/Ha): 60; Control of weed species AMAPA ([4]; 500 g/Ha): 60; Control of weed species IPOHE ([5]; 500 g/Ha): 80; Control of weed species EPHHL ([6]; 500 g/Ha): 100
C[n+]1cc(P(=O)([O-])OCc2ccc(F)cc2)c2ccccc2n1 [Composition C23] |  |  |  |  |  |  |  |  |  | Control of weed species LOLPE (Lolium perenne (LOLPE); 125 g/Ha): 10; Control of weed species ECHCG ([1]; 125 g/Ha): 30; Control of weed species ELEIN (Eleusine indica (ELEIN); 125 g/Ha): 40; Control of weed species CHEAL ([2]; 125 g/Ha): 10; Control of weed species DIGSA ([3]; 125 g/Ha): 60; Control of weed species SETFA (Setaria faberi (SETFA); 125 g/Ha): 30; Control of weed species AMAPA ([4]; 125 g/Ha): 20; Control of weed species IPOHE ([5]; 125 g/Ha): 10; Control of weed species EPHHL ([6]; 125 g/Ha): 40
CC(C)COP(=O)([O-])c1c[n+](C)nc2ccccc12 [Composition C26] | 40 | 60 | 90 | 90 | 60 | 90 | 100 | 60 | 100 | 
CC(C)OP(=O)([O-])c1c[n+](C)nc2ccccc12 [Composition C8] | 50 | 100 | 100 | 100 | 100 | 90 | 100 | 100 | 100 | 
COP(=O)([O-])c1c[n+](C)nc2cc(C)ccc12 [Composition C14] | 60 | 70 | 100 | 100 | 80 | 90 | 100 | 100 | 100 | 
